Measurements published in ChEMBL document CHEMBL5230081, “Battle against Vancomycin-Resistant Bacteria: Recent Developments in Chemical Strategies” (J Med Chem, 2019).
≈ marks a conversion by molar mass, not a printed value. Where a SMILES comes first, the peptide text is derived from it. [ ]: non-standard residue; d: D form. ξ: configuration not given here. ξW = NC(Cc1c[nH]c2ccccc12)C(=O)O

Columns and labels:
[1] = test system: Staphylococcus aureus; assay: Antibacterial activity against Vancomycin-resistant Staphylococcus aureus assessed as bacterial growth inhibition measured after 48 hrs by microbroth dilution method; assay type: functional
[2] = test system: Staphylococcus aureus; assay: Antibacterial activity against Vancomycin-intermediate Staphylococcus aureus assessed as bacterial growth inhibition measured after 24 hrs by microbroth dilution method; assay type: functional
[3] = test system: Pseudomonas aeruginosa; assay: Antibacterial activity against extensively drug resitant Pseudomonas aeruginosa; assay type: functional, organism-based
[4] = test system: Enterococcus faecalis; assay: Antimicrobial activity against Vancomycin - resistant Enterococcus faecalis assessed as inhibition of bacterial growth; assay type: functional
[5] = test system: Pseudomonas aeruginosa; assay: Antibacterial activity against Pseudomonas aeruginosa ATCC 27853 assessed as bacterial growth inhibition measured after 24 hrs by microbroth dilution method; assay type: functional
[6] = test system: Pseudomonas aeruginosa; assay: Synergistic antibacterial activity against multidrug-resistant Pseudomonas aeruginosa ATCC 27853 assessed as reduction in bacterial viability after 12 hrs in presence of 1/2 MIC of vancomycin; assay type: functional
[7] = test system: Escherichia coli; assay: Synergistic antibacterial activity against multidrug-resistant Escherichia coli assessed as reduction in bacterial viability after 12 hrs in presence of 1/2 MIC of nitrofurantoin; assay type: functional
[8] = test system: Escherichia coli; assay: Synergistic antibacterial activity against multidrug-resistant Escherichia coli assessed as reduction in bacterial viability after 12 hrs in presence of 1/2 MIC of trimethoprim; assay type: functional
[9] = test system: Escherichia coli; assay: Synergistic antibacterial activity against Escherichia coli in presence of nitrofurantoin; assay type: functional
[10] = test system: Escherichia coli; assay: Synergistic antibacterial activity against Escherichia coli in presence of Trimethoprim; assay type: functional
[11] = test system: Staphylococcus aureus; assay: Antibacterial activity against Staphylococcus aureus assessed as biofilm formation; assay type: functional
[12] = test system: Enterococcus faecalis; assay: Antibiofilm activity against Enterococcus faecalis ATCC 47077 biofilms assessed as biofilm eradication; assay type: functional
[13] = test system: Staphylococcus aureus; assay: Antimicrobial activity against Vancomycin-resistant Staphylococcus aureus incubated for 20 hrs by broth dilution method; assay type: functional
[14] = test system: Enterococcus faecium; assay: Antimicrobial activity against Vancomycin-resistant (Van A) Enterococcus faecium ATCC 51559 assessed as reduction in microbial growth; assay type: functional
[15] = Binding affinity to D-Ala-D-Lac assessed as dissociation constant
[16] = Binding affinity to D-Ala-D-Ala assessed as dissociation constant
[17] = test system: Enterococcus faecium; assay: Antimicrobial activity against Vancomycin-resistant (Van S) Enterococcus faecium ATCC 51559 assessed as reduction in microbial growth; assay type: functional
[18] = test system: Staphylococcus aureus; assay: Antibacterial activity against Vancomycin-intermediate Staphylococcus aureus NRS1 assessed as bacterial growth inhibition; assay type: functional
[19] = test system: Enterococcus faecium; assay: Antibacterial activity against Vancomycin-resistant Enterococcus faecium assessed as colony forming unit at 20 times MIC concentration measured after 21 days by time kill assay; assay type: functional; details: time 21 day
[20] = Enterococcus faecium, ATCC 51559, read-out: MIC

Which results are given for `N=C(N)NCCC[C@H](NC(=O)[C@H](CCCNC(=N)N)NC(=O)[C@H](Cc1c[nH]c2ccccc12)NC(=O)[C@H](Cc1c[nH]c2ccccc12)NC(=O)[C@H](CCCNC(=N)N)NC(=O)[C@H](CCCNC(=N)N)NC(=O)[C@H](Cc1c[nH]c2ccccc12)NC(=O)C(Cc1c[nH]c2ccccc12)NC(=O)[C@H](CCCNC(=N)N)NC(=O)[C@H](Cc1c[nH]c2ccccc12)NC(=O)[C@H](Cc1c[nH]c2ccccc12)NC(=O)[C@@H](N)CCCNC(=N)N)C(=O)O` (stereo partly drawn) (H-RWWR[ξW]WRRWWRR-OH)?
MIC [1]: 1 µg/mL (≈ 0.483 µM); MIC [2]: 4 µg/mL (≈ 1.93 µM)

With POLYMYXIN B as the molecule, how does the MIC [3] read?
The MIC was 2 µg/mL.

Which MIC [4] does the source give for `CN[C@H](CC(C)C)C(=O)N[C@H]1C(=O)N[C@@H](CC(N)=O)C(=O)N[C@H]2C(=O)N[C@H]3C(=O)N[C@H](C(=O)N[C@H](C(=O)O)c4cc(O)cc(O)c4-c4cc3ccc4O)[C@H](O)c3ccc(c(Cl)c3)Oc3cc2cc(c3O[C@@H]2O[C@H](CO)[C@@H](O)[C@H](O)[C@H]2O[C@H]2C[C@](C)(N)[C@H](O)[C@H](C)O2)Oc2ccc(cc2Cl)[C@H]1O` [VANCOMYCIN] here?
Its MIC is 31 µg/mL (≈ 21.4 µM).

And the MIC [5]?
The MIC was 0.5 µg/mL (≈ 0.345 µM).

What about the “fractional inhibitory concentration index (FICI)” value [6] of the same molecule?
Its value is <0.5.

What about the MIC [7] of the same molecule?
The MIC was 12.5 µg/mL.

And the MIC [8]?
The MIC was 3.5 µg/mL.

What about the MIC [9] of the same molecule?
Its MIC is 6.25 µg/mL.

What about the MIC [10] of the same molecule?
Its MIC is 0.2 µg/mL.

And the MBEC [11]?
Its MBEC is >512 µg/mL.

What about the MBEC [12] of the same molecule?
Its MBEC is >512 µg/mL.

For `CN[C@H](CC(C)C)C(=O)N[C@H]1C(=O)N[C@@H](CC(N)=O)C(=O)N[C@H]2C(=O)N[C@H]3C(=O)N[C@H](C(=O)N[C@H](C(=O)NCCSSCCNC(=O)[C@H]4NC(=O)[C@H]5NC(=O)[C@H](NC(=O)[C@@H]6NC(=O)[C@H](CC(N)=O)NC(=O)[C@H](NC(=O)[C@@H](CC(C)C)NC)[C@H](O)c7ccc(c(Cl)c7)Oc7cc6cc(c7O[C@@H]6O[C@H](CO)[C@@H](O)[C@H](O)[C@H]6O[C@H]6C[C@](C)(N)[C@H](O)[C@H](C)O6)Oc6ccc(cc6Cl)[C@H]5O)c5ccc(O)c(c5)-c5c(O)cc(O)cc54)c4cc(O)cc(O)c4-c4cc3ccc4O)[C@H](O)c3ccc(c(Cl)c3)Oc3cc2cc(c3O[C@@H]2O[C@H](CO)[C@@H](O)[C@H](O)[C@H]2O[C@H]2C[C@](C)(N)[C@H](O)[C@H](C)O2)Oc2ccc(cc2Cl)[C@H]1O`, which MIC [13] is on record?
Its MIC is 11 µM (≈ 33.2 µg/mL).

And the MIC [14, 20]?
The MIC was 11 µM.

And the Kd [15]?
Its Kd is 440 µM.

What about the Kd [16] of the same molecule?
Its Kd is 1.9 µM.

Which MIC [5] does the source give for `CC(=O)N[C@@H]1[C@H](Oc2c3cc4cc2Oc2ccc(cc2Cl)[C@@H](O[C@@H]2O[C@@H](CO)[C@@H](O)[C@H](O)[C@@H]2NC(C)=O)[C@@H]2NC(=O)[C@H](NC(=O)[C@@H]4NC(=O)[C@H]4NC(=O)[C@@H](Cc5ccc(c(Cl)c5)O3)NC(=O)[C@H](N)c3ccc(O)c(c3)Oc3cc(O)cc4c3)c3ccc(O)c(c3)-c3c(O[C@H]4O[C@H](CO)[C@@H](O)[C@@H](O)[C@@H]4O)cc(O)cc3[C@@H](C(=O)O)NC2=O)O[C@@H](CO)[C@@H](O)[C@@H]1O` here?
The MIC was 256 µg/mL (≈ 145 µM).

And the “fractional inhibitory concentration index (FICI)” value [6]?
The value was <0.5.

Which MIC [17] does the source give for `CCCCCCCCCC(=O)O[C@@H]1c2ccc(c(Cl)c2)Oc2cc3cc(c2O[C@@H]2O[C@H](CO)[C@@H](O)[C@H](O)[C@H]2O[C@H]2C[C@](C)(N)[C@H](O)[C@H](C)O2)Oc2ccc(cc2Cl)[C@@H](O)[C@@H](NC(=O)[C@@H](CC(C)C)NC)C(=O)N[C@@H](CC(N)=O)C(=O)N[C@H]3C(=O)N[C@H]2C(=O)N[C@@H]1C(=O)N[C@H](C(=O)O)c1ccccc1-c1cccc2c1` here?
Its MIC is 0.25 µg/mL.

Which MIC [14] does the source give for `CN[C@H](CC(C)C)C(=O)N[C@H]1C(=O)N[C@@H](CC(N)=O)C(=O)N[C@H]2C(=O)N[C@H]3C(=O)N[C@H](C(=O)N[C@H](C(=O)NCCCCCCN(Cc4ccccn4)Cc4ccccn4)c4cc(O)cc(O)c4-c4cc3ccc4O)[C@H](O)c3ccc(c(Cl)c3)Oc3cc2cc(c3O[C@@H]2O[C@H](CO)[C@@H](O)[C@H](O)[C@H]2O[C@H]2C[C@](C)(N)[C@H](O)[C@H](C)O2)Oc2ccc(cc2Cl)[C@H]1O` here?
Its MIC is 1.5 µM.

And the MIC [14, 20]?
The MIC was 2 µM.

And the MIC [18]?
Its MIC is 1 µM (≈ 1.73 µg/mL).

And the Activity [19]?
Its Activity is 5 log10/ml.
